Test results: paper PMC9516332 (Frontiers in Oncology, 2022)
Read-outs that look alike come from different tables or passages of the source.

Tested on: 134 cancer cell lines
Assay: Cell viability assay (ATPlite, 72 hours), IC50 on cancer cell line panel

C=CC(=O)N1CCC([C@@H]2CCNc3c(C(N)=O)c(-c4ccc(Oc5ccccc5)cc4)nn32)CC1 [zanubrutinib]
IC50 (Homo sapiens, LS174T, read-out: IC50 in cell proliferation assay): 11.5 µM | IC50 (Homo sapiens, LS-411N, read-out: IC50 in cell proliferation assay): 12.4 µM | IC50 (Homo sapiens, LoVo, read-out: IC50 in cell proliferation assay): 24.9 µM | IC50 (Homo sapiens, MCF7, read-out: IC50 in cell proliferation assay): > 31.6 µM | IC50 (Homo sapiens, MDA-MB-231, read-out: IC50 in cell proliferation assay): > 31.6 µM | IC50 (Homo sapiens, MDA-MB-453, read-out: IC50 in cell proliferation assay): 4.19 µM | IC50 (Homo sapiens, MDA-MB-468, read-out: IC50 in cell proliferation assay): 3.9 µM | IC50 (Homo sapiens, MG-63, read-out: IC50 in cell proliferation assay): 29.3 µM | IC50 (Homo sapiens, MIA PaCa-2, read-out: IC50 in cell proliferation assay): > 31.6 µM | IC50 (Homo sapiens, MKN-45, read-out: IC50 in cell proliferation assay): > 31.6 µM | IC50 (Homo sapiens, MOLM-13, read-out: IC50 in cell proliferation assay): 2.06 µM | IC50 (Homo sapiens, MOLT-4, read-out: IC50 in cell proliferation assay): 16.5 µM | IC50 (Homo sapiens, MV4-11, read-out: IC50 in cell proliferation assay): 3.72 µM | IC50 (Homo sapiens, MeWo, read-out: IC50 in cell proliferation assay): > 31.6 µM | IC50 (Homo sapiens, NCCIT, read-out: IC50 in cell proliferation assay): 11.4 µM | IC50 (Homo sapiens, NCI-H82, read-out: IC50 in cell proliferation assay): > 31.6 µM | IC50 (Homo sapiens, NCI-H460, read-out: IC50 in cell proliferation assay): > 31.6 µM | IC50 (Homo sapiens, NCI-H661, read-out: IC50 in cell proliferation assay): 0.612 µM | IC50 (Homo sapiens, NCI-H716, read-out: IC50 in cell proliferation assay): 11.7 µM | IC50 (Homo sapiens, NCI-H1650, read-out: IC50 in cell proliferation assay): 13.9 µM | IC50 (Homo sapiens, NCI-H1975, read-out: IC50 in cell proliferation assay): 4.6 µM | IC50 (Homo sapiens, NCI-H2228, read-out: IC50 in cell proliferation assay): > 31.6 µM | IC50 (Homo sapiens, OVCAR-3, read-out: IC50 in cell proliferation assay): 1.53 µM | IC50 (Homo sapiens, PFSK-1, read-out: IC50 in cell proliferation assay): 18 µM | IC50 (Homo sapiens, RL95-2, read-out: IC50 in cell proliferation assay): 1.17 µM | IC50 (Homo sapiens, RPMI-7951, read-out: IC50 in cell proliferation assay): > 31.6 µM | IC50 (Homo sapiens, RS4-11, read-out: IC50 in cell proliferation assay): 26.5 µM | IC50 (Homo sapiens, SHP77, read-out: IC50 in cell proliferation assay): > 31.6 µM | IC50 (Homo sapiens, SK-BR-3, read-out: IC50 in cell proliferation assay): 0.141 µM | IC50 (Homo sapiens, SK-N-AS, read-out: IC50 in cell proliferation assay): 15.5 µM | IC50 (Homo sapiens, SK-N-FI, read-out: IC50 in cell proliferation assay): > 31.6 µM | IC50 (Homo sapiens, SK-N-MC, read-out: IC50 in cell proliferation assay): 23.1 µM | IC50 (Homo sapiens, SK-N-SH, read-out: IC50 in cell proliferation assay): > 31.6 µM | IC50 (Homo sapiens, SNU-5, read-out: IC50 in cell proliferation assay): 8.94 µM | IC50 (Homo sapiens, SNU-16, read-out: IC50 in cell proliferation assay): 8.54 µM | IC50 (Homo sapiens, SNU-C2B, read-out: IC50 in cell proliferation assay): 0.866 µM | IC50 (Homo sapiens, SU-DHL-1, read-out: IC50 in cell proliferation assay): 16.8 µM | IC50 (Homo sapiens, SU-DHL-6, read-out: IC50 in cell proliferation assay): 0.00375 µM | IC50 (Homo sapiens, SUP-T1, read-out: IC50 in cell proliferation assay): 17.5 µM | IC50 (Homo sapiens, SW48, read-out: IC50 in cell proliferation assay): 0.043 µM | IC50 (Homo sapiens, SW480, read-out: IC50 in cell proliferation assay): 9.56 µM | IC50 (Homo sapiens, SW626, read-out: IC50 in cell proliferation assay): 2.71 µM | IC50 (Homo sapiens, SW780, read-out: IC50 in cell proliferation assay): 5.82 µM | IC50 (Homo sapiens, SW837, read-out: IC50 in cell proliferation assay): 6 µM | IC50 (Homo sapiens, SW872, read-out: IC50 in cell proliferation assay): > 31.6 µM | IC50 (Homo sapiens, SW900, read-out: IC50 in cell proliferation assay): 5.84 µM | IC50 (Homo sapiens, SW948, read-out: IC50 in cell proliferation assay): > 31.6 µM | IC50 (Homo sapiens, SW982, read-out: IC50 in cell proliferation assay): > 31.6 µM | IC50 (Homo sapiens, SW-620, read-out: IC50 in cell proliferation assay): 4.75 µM | IC50 (Homo sapiens, T98G, read-out: IC50 in cell proliferation assay): > 31.6 µM | IC50 (Homo sapiens, TCC-SUP, read-out: IC50 in cell proliferation assay): > 31.6 µM | IC50 (Homo sapiens, THP-1, read-out: IC50 in cell proliferation assay): > 31.6 µM | IC50 (Homo sapiens, U2OS, read-out: IC50 in cell proliferation assay): 10.7 µM | IC50 (Homo sapiens, U-87 MG, read-out: IC50 in cell proliferation assay): > 31.6 µM | IC50 (Homo sapiens, U-118-MG, read-out: IC50 in cell proliferation assay): > 31.6 µM | IC50 (Homo sapiens, UMUC3, read-out: IC50 in cell proliferation assay): 24.1 µM | IC50 (Hs766T, read-out: IC50 in cell proliferation assay): > 31.6 µM | IC50 (L-82, read-out: IC50 in cell proliferation assay): 17.6 µM | IC50 (Rh30, read-out: IC50 in cell proliferation assay): 17.4 µM
